We go through 20 molecules from patent US20250163057A1, “DCN-1 MODULATING COMPOUNDS AND METHODS OF USE THEREOF” (Cellarity, Inc., priority 2023, published 2025).

Where two headings read alike, the source gives them in different places.

Assay [1] has as its target DCN1 (DCUND1) protein PONY domain (Homo sapiens (Human), UniProt Q96GG9). The assay is described as follows: TR-FRET assay, DCN1 binding with FAM-labeled probe. The method, boiled down:
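Tb-DCN1 PONY domain (E. coli, biotin/streptavidin-Tb); FAM-labelled non-covalent inhibitor probe; TritonX buffer, 200 mM NaCl; 5 nM DCN1 + 20 nM probe or 0.31 nM DCN1 + 900 nM total probe; 0.1% DMSO; TR-FRET read 1, 5, 24 hrs.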
In general terms: In TR-FRET formats the signal depends on donor and acceptor labels being close together.

Another assay has as its target DCN1 protein (Homo sapiens (Human), UniProt Q96GG9). Put plainly: Intact Protein MS Analysis with the RapidFire-TOF System (covalent adduct formation). In kind it is binding. As to conditions: MS Emax; 400 nM DCN1, 3 hours at room temperature. In a few lines:
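Tag-cleaved human DCN1 (400 nM) expressed in E. coli, in 25 mM Tris-HCl, 200 mM NaCl, 1 mM DTT, was incubated with 11 compound concentrations for 3 h at room temperature and quenched with 0.2% formic acid. Intact-protein Q-TOF MS with deconvolution detected the compound adduct mass.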

Assay [2] has as its system Cullin-3 (CUL3) neddylation. Put plainly: AlphaLISA assay for Cullin-3 (CUL3) neddylation in TF 1 cells. The assay is classed as cell-based. As to conditions: 3 hours treatment. The method, boiled down: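 Neddylated CUL3 was quantified by AlphaLISA in lysates of TF 1 cells exposed for 3 h to test compound in IMDM without supplements. Percent inhibition set between vehicle and 1 μM DI-1548 positive control; IC50 derived by Hill-equation fitting of dose-response curves.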

Setting [3] is: 24 hr after treatment with compound, read-out: TR FRET IC50 24 hr.
Setting [4] is: read-out: TR FRET IC50 1 hr, 1 hr after treatment with compound.
[5] abbreviates: TR FRET IC50 1 hr (nM), 1 hr after treatment with compound.

DCN1 (DCUND1) protein PONY domain, sequence (Q96GG9 60-248): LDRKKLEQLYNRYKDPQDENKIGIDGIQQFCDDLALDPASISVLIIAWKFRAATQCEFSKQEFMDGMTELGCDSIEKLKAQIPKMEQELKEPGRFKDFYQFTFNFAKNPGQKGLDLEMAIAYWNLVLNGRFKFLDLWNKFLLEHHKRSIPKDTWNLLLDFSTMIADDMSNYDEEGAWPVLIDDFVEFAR
DCN1 protein, sequence (Q96GG9 whole entry): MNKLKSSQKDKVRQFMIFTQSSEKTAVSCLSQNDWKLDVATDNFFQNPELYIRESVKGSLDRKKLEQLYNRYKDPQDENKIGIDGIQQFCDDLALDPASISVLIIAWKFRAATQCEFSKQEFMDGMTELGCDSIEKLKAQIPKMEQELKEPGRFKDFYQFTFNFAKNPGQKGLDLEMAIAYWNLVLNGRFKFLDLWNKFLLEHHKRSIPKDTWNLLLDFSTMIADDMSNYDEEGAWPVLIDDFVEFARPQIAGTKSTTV

On to `CCN1C(=O)[C@@H](NC(=O)c2cccc(C(F)(F)F)c2)[C@@H](c2ccc(F)cc2)c2c(C(=O)N(CC#N)CC#N)nn(C3CCOCC3)c21` [Compound I-365], for which the 50% inhibitory concentration (IC50) – broadly, the concentration that gives 50% inhibition – in assay [1] (setting [3]) is no more than 200 nM; in assay [1] (setting [4]), no more than 200 nM; in assay [2] (Homo sapiens, TF-1, 3 h), no more than 100 nM. Moreover, the “% Adduct Formation” value at DCN1 protein was “+++ (MS Emax % adduct formation greater than 80.0 and less than or equal to 100.0)”.

As to `CCN1C(=O)[C@@H](NC(=O)c2cccc(OC(F)(F)F)c2)[C@@H](C2CC2)c2c(C(=O)N3[C@H](C#N)C[C@H]4C[C@H]43)nn(C3CCOCC3)c21` [Compound I-396], the values for the IC50 in assay [1] (setting [3]), in assay [1] (setting [4]) and in assay [2] (Homo sapiens) were no more than 200 nM, no more than 200 nM and no more than 100 nM, respectively. Moreover, at DCN1 protein, the “% Adduct Formation” value was “+++ (MS Emax % adduct formation greater than 80.0 and less than or equal to 100.0)”.

In the case of `CCN1C(=O)[C@@H](NC(=O)c2cccc(C(F)(F)F)c2)[C@@H](C2CC2)c2c(C(=O)N(CC#N)CC#N)nn(C3CCOCC3)c21` [Compound I-373], the IC50 in assay [1] (setting [3]) is no more than 200 nM; in assay [1] (setting [4]) it was no more than 200 nM; in assay [2] (Homo sapiens, TF-1, 3 h), no more than 100 nM. Further, the “% Adduct Formation” value at DCN1 protein is “++ (MS Emax % adduct formation greater than 30.0 and less than or equal to 80.0)”.

As for `CCN1C(=O)[C@@H](NC(=O)c2cccc(C(F)(F)F)c2)[C@@H](c2ccc(F)cc2)c2c([C@@H](CN(C)C)NC#N)nn(-c3ccccc3)c21` (mixture of isomers) [Compound I-272], the IC50 in assay [1] (setting [3]) was no more than 200 nM; in assay [1] (setting [4]), no more than 200 nM; in assay [2] (Homo sapiens, TF-1, 3 h), no more than 100 nM. Further, the “% Adduct Formation” value at DCN1 protein was “+++ (MS Emax % adduct formation greater than 80.0 and less than or equal to 100.0)”.

`CCN1C(=O)[C@@H](NC(=O)c2cccc(C(F)(F)F)c2)[C@@H](c2ccc(F)cc2)c2c(C(=O)N3CCN(C4COC4)CC3C#N)nn(-c3ccccc3)c21` (stereo partly drawn) [Compound I-357]: the IC50 in assay [1] (setting [3]) is no more than 200 nM; in assay [1] (setting [4]) it was no more than 200 nM; in assay [2] (Homo sapiens, TF-1, 3 h), no more than 100 nM. At DCN1 protein, the “% Adduct Formation” value was “++ (MS Emax % adduct formation greater than 30.0 and less than or equal to 80.0)”.

Consider `CCN1C(=O)[C@@H](NC(=O)c2cccc(C(F)(F)F)c2)[C@@H](c2ccc(F)cc2)c2c([C@@H](CF)NC#N)nn(-c3ccccc3)c21` [Compound I-279], for which the IC50 is no more than 200 nM in assay [1] (setting [3]); no more than 200 nM in assay [1] (setting [4]); no more than 100 nM in assay [2] (Homo sapiens, TF-1, 3 h). The “% Adduct Formation” value on DCN1 protein was “+++ (MS Emax % adduct formation greater than 80.0 and less than or equal to 100.0)”.

Turning to `CCN1C(=O)[C@@H](NC(=O)c2cccc(C(F)(F)F)c2)[C@@H](c2ccc(F)cc2)c2c(C(=O)N(CC#N)CC(=O)OC)nn(-c3ccccc3)c21` (stereo in doubt) [Compound I-287], the IC50 in assay [1] (setting [3]) was no more than 200 nM; in assay [1] (setting [4]), no more than 200 nM; in assay [2] (Homo sapiens, TF-1, 3 h), no more than 100 nM. The “% Adduct Formation” value at DCN1 protein was “+++ (MS Emax % adduct formation greater than 80.0 and less than or equal to 100.0)”.

On to `CCN1C(=O)[C@@H](NC(=O)c2cccc(C(F)(F)F)c2)[C@@H](c2ccc(F)cc2)c2c(C(=O)N3CCOC[C@H]3C#N)nn(-c3ccccc3)c21` (mixture of isomers) [Compound I-295], for which the IC50 in assay [1] (setting [3]) was no more than 200 nM; in assay [1] (setting [5]), 1000 to 3000 nM; in assay [2], no more than 100 nM. Also, the “% Adduct Formation” value on DCN1 protein was “+++ (MS Emax % adduct formation greater than 80.0 and less than or equal to 100.0)”.

`CCN1C(=O)[C@@H](NC(=O)c2cccc(C(F)(F)F)c2)[C@@H](c2ccc(F)cc2)c2c(C(=O)N(C)[C@H](C)C#N)nn(-c3ccccc3)c21` (single isomer, unassigned) [Compound I-289, (4S,5S)—N—((R*)-1-cyanoethyl)-7-ethyl-4-(4-fluorophenyl)-N-methyl-6-oxo-1-phenyl-5-(3-(trifluoromethyl)benzamido)-4,5,6,7-tetrahydro-1H-pyrazolo[3,4-b]pyridine-3-carboxamide]: the IC50 in assay [1] (setting [3]) is no more than 200 nM; in assay [1] (setting [5]), no more than 200 nM; in assay [2] (Homo sapiens, TF-1, 3 h), no more than 100 nM. Moreover, the “% Adduct Formation” value on DCN1 protein was “+++ (MS Emax % adduct formation greater than 80.0 and less than or equal to 100.0)”.

`CCN1C(=O)[C@@H](NC(=O)c2cccc(C(F)(F)F)c2)[C@@H](c2ccc(F)cc2)c2c(C(=O)N(C)CC#N)nn(C3CCOCC3)c21` [Compound I-366]: the IC50 in assay [1] (setting [3]) is no more than 200 nM; in assay [1] (setting [4]) it was no more than 200 nM; in assay [2] (Homo sapiens, TF-1, 3 h), no more than 100 nM. Also, the “% Adduct Formation” value at DCN1 protein is “+++ (MS Emax % adduct formation greater than 80.0 and less than or equal to 100.0)”.

For the molecule `CCN1C(=O)[C@@H](NC(=O)c2cccc(OC)c2)[C@@H](C2CC2)c2c(C(=O)N3[C@H](C#N)C[C@H]4C[C@H]43)nn(C3CCOCC3)c21` [Compound I-395], the IC50 is no more than 200 nM in assay [1] (setting [3]), no more than 200 nM in assay [1] (setting [4]) and no more than 100 nM in assay [2] (Homo sapiens). Also, the “% Adduct Formation” value at DCN1 protein was “+++ (MS Emax % adduct formation greater than 80.0 and less than or equal to 100.0)”.

For the molecule `CCN(CC#N)C(=O)c1nn(-c2ccccc2)c2c1[C@H](c1ccc(F)cc1)[C@H](NC(=O)c1cccc(C(F)(F)F)c1)C(=O)N2CC` (stereo in doubt) [Compound I-283], the IC50 in assay [1] (setting [3]) is no more than 200 nM; in assay [1] (setting [4]), no more than 200 nM; in assay [2] (Homo sapiens, TF-1, 3 h), no more than 100 nM. Also, the “% Adduct Formation” value at DCN1 protein is “+++ (MS Emax % adduct formation greater than 80.0 and less than or equal to 100.0)”.

`CCN1C(=O)[C@@H](NC(=O)c2cccc(C(F)(F)F)c2)[C@@H](c2ccc(F)cc2)c2c(C(=O)N3CCOC[C@H]3C#N)nn(-c3ccccc3)c21` [Compound I-276]: the IC50 is no more than 200 nM in assay [1] (setting [3]); 200 to 1000 nM in assay [1] (setting [5]); no more than 100 nM in assay [2] (Homo sapiens, TF-1, 3 h). The “% Adduct Formation” value on DCN1 protein was “+++ (MS Emax % adduct formation greater than 80.0 and less than or equal to 100.0)”.

Take `CCN1C(=O)[C@H](NC(=O)c2cccc(C(F)(F)F)c2)[C@H](c2ccc(F)cc2)c2c(C(=O)N3CCOCC3C#N)nn(-c3ccccc3)c21` (single isomer, unassigned) [Compound I-296]: the IC50 was no more than 200 nM in assay [1] (setting [3]); 1000 to 3000 nM in assay [1] (setting [5]); no more than 100 nM in assay [2] (Homo sapiens, TF-1, 3 h). In addition, the “% Adduct Formation” value on DCN1 protein is “++ (MS Emax % adduct formation greater than 30.0 and less than or equal to 80.0)”.

As for `CCN1C(=O)[C@@H](NC(=O)c2cccc(C(F)(F)F)c2)[C@@H](c2ccc(F)cc2)c2c(C(=O)N(C)[C@H](C#N)CCN3CC4CCC(C3)O4)nn(-c3ccccc3)c21` [Compound I-318], the IC50 in assay [1] (setting [3]) was no more than 200 nM; in assay [1] (setting [5]) it was 1000 to 3000 nM; in assay [2] (Homo sapiens, TF-1, 3 h), no more than 100 nM. For the same molecule, on DCN1 protein, the “% Adduct Formation” value is “+++ (MS Emax % adduct formation greater than 80.0 and less than or equal to 100.0)”.

On to `CCN1C(=O)[C@@H](NC(=O)c2cccc(C(F)(F)F)c2)[C@@H](c2ccc(F)cc2)c2c(NS(=O)(=O)CCl)nn(-c3ccccc3)c21` (racemic) [Compound I-163], for which the IC50 in assay [1] (setting [3]) and in assay [1] (setting [4]) was no more than 200 nM each time. Also, at DCN1 protein, the “% Adduct Formation” value was “+ (MS Emax % adduct formation greater than or equal to 0.0 and less than or equal to 30.0)”.

For the molecule `CCN1C(=O)[C@@H](NC(=O)c2cccc(C(F)(F)F)c2)[C@@H](c2ccc(F)cc2)c2c(C#N)nn(-c3ccccc3)c21` (racemic) [Compound I-115, rac-N-((4R,5R)-3-cyano-7-ethyl-4-(4-fluorophenyl)-6-oxo-1-phenyl-4,5,6,7-tetrahydro-1H-pyrazolo[3,4-b]pyridine-5-yl)-3-(trifluoromethyl)benzamide], the IC50 in assay [1] (setting [3]) and in assay [1] (setting [5]) was greater than 3000 nM in each case. For the same molecule, on DCN1 protein, the “% Adduct Formation” value was “+ (MS Emax % adduct formation greater than or equal to 0.0 and less than or equal to 30.0)”.

Turning to `C/C=C/C(=O)NCc1nn(-c2ccccc2)c2c1[C@H](c1ccc(F)cc1)[C@H](NC(=O)c1cccc(C(F)(F)F)c1)C(=O)N2CC` (racemic) [Compound I-123], the IC50 in assay [1] (setting [3]) and in assay [1] (setting [5]) was 200 to 1000 nM throughout. In addition, the “% Adduct Formation” value on DCN1 protein was “+ (MS Emax % adduct formation greater than or equal to 0.0 and less than or equal to 30.0)”.

As to `C=C(C)C(=O)N[C@@H](C)c1nn(-c2ccccc2)c2c1[C@H](c1ccc(F)cc1)[C@H](NC(=O)c1cccc(C(F)(F)F)c1)C(=O)N2CC` (mixture of isomers) [Compound I-16], the IC50 lay within 1000 to 3000 nM in assay [1] (setting [3]) and 200 to 1000 nM in assay [1] (setting [5]). Besides, the “% Adduct Formation” value on DCN1 protein was “+ (MS Emax % adduct formation greater than or equal to 0.0 and less than or equal to 30.0)”.

In the case of `C=C(C)C(=O)N(C)Cc1nn(-c2ccccc2)c2c1[C@H](c1ccc(F)cc1)[C@H](NC(=O)c1cccc(C(F)(F)F)c1)C(=O)N2CC` (racemic) [Compound I-156], the IC50 in assay [1] (setting [3]) and in assay [1] (setting [5]) was 200 to 1000 nM in each case. Besides, the “% Adduct Formation” value at DCN1 protein was “+ (MS Emax % adduct formation greater than or equal to 0.0 and less than or equal to 30.0)”.
